Test results: patent US10660967B2, “Curcumin conjugates and methods of use thereof” (priority 2016, dated 2020)
Like-named read-outs stand apart in the source and are kept apart here.

Experiments:
[1] = tested on: PHA-stimulated splenocytes; assay: Proliferative response of PHA-stimulated splenocytes (MTT assay); format: cell-based; details: PHA 5 μg/ml, 72 hr; compounds at 5 μM (method says 10 μM); ratio of O.D. versus vehicle control
Outline: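 Readout was MTT absorbance (570 nm, reference 690 nm) after 72 h culture at 37° C. Splenocytes at 1×10^6 cells/well received test compound (10 μM final) alone or plus PHA 5 μg/ml as T-cell mitogen. Values are OD ratios of compound over vehicle control (stimulation index).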

[2] = tested on: lipopolysaccharide-stimulated peritoneal macrophages; assay: Production of nitric oxide by lipopolysaccharide-stimulated peritoneal macrophages (Greiss reagent); format: cell-based; design: Potency (%): % inhibition of nitric oxide production relative to lipopolysaccharide-stimulated macrophages: concentration or dose not given beside the values; details: LPS-stimulated peritoneal macrophages; for Nitric oxide (nitrite) concentration, μM (average ± SD): 24 h, nitrite by Greiss reagent
Outline: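 NO output was quantified as accumulated nitrite, reacting supernatant with Greiss reagent (sulfanilamide/α-naphthylamine) and reading at 532 nm. Beforehand, cells had been incubated 24 h at 37° C. in nitrite-free, 0.1% BSA medium with 0.5–10 ng/ml LPS, with or without catecholamines at […].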

[3] = tested on: Salmonella typhi ATCC19430; assay: Antimicrobial MIC, agar dilution; format: cell-based; details: Salmonella enterica, read-out: Minimum inhibitory concentration (MIC)
MCF-7 cells = assay: Effect on doxorubicin induced cytotoxicity (MTT)
Outline: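 MCF-7 cells were exposed for 48 hr to 100 μM curcumin derivative alone or combined with 10 μM doxorubicin. Controls got medium, DMSO vehicle, or vehicle+doxorubicin. Percent viable cells was read by MTT assay.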

[4] = tested on: A-549 (lung) carcinoma cell line; assay: Anti-tumor properties, MTT; format: cell-based; details: Homo sapiens, A549
[5] = tested on: PC3 (prostate) carcinoma cell line; assay: Anti-tumor properties, MTT; format: cell-based; details: Homo sapiens

Structure (SMILES) | Stimulation Index (average ± SD) [1] | Potency (%): % inhibition of nitric oxide production relative to lipopolysaccharide-stimulated macrophages [2] [%] | Nitric oxide (nitrite) concentration, μM (average ± SD) [2] [µM] | MIC ([3]; 18 h) [µg/mL] | MIC [3] [µM] | Percentage of viable cells MCF-7 (average ± SD) (MCF-7 cells; 10 μM DOX in combination with 100 μM curcumin derivative, 48 hr) | viability at 100 µM (MCF-7 cells; Homo sapiens, MCF7, 48 h, read-out: Percentage of viable cells MCF-7 (average ± SD)) [%] | IC50 [4] [µM] | IC50 [5] [µM]
COc1cc(/C=C/C(=O)CC(=O)/C=C/c2ccc(OC(=O)C(C)NC(=O)OCc3ccccc3)c(OC)c2)ccc1OC(=O)C(C)NC(=O)OCc1ccccc1 (racemic) [Cbz-DL-Ala-Cur, ((1E,6E)-3,5-dioxohepta-1,6-diene-1,7-diyl)bis(2-methoxy-4,1-phenylene) bis(2-(((benzyloxy)carbonyl)amino)propanoate)] | 1.18 ± 0.09 | 45.41 | 14.91 ± 0.62 | 0.5 | 0.642 | 45.70 ± 2.23 | 98.8 ± 4.55 | – | –
COc1cc(/C=C/C(=O)CC(=O)/C=C/c2ccc(OC(=O)[C@H](N)CCSC)c(OC)c2)ccc1OC(=O)[C@H](N)CCSC.Cl.Cl [HCl-D-Met-Cur, (2R,2′R)-1,1′-((((1E,6E)-3,5-dioxohepta-1,6-diene-1,7-diyl)bis(2-methoxy-4,1-phenylene))bis(oxy))bis(4-(methylthio)-1-oxobutan-2-aminium) chloride] | 1.01 ± 0.15 | 49.57 | 13.77 ± 0.96 | 0.25 | 0.355 | – | – | 20 | 41.5
